According to PubChem BioAssay AID2060504 (Molecular Pharmacology Branch, DTP, NCI, 2025):

Test system: 636577-100-R-J1-PDC complex spheroid viability
Test: Anticancer human tumor 636577-100-R-J1-PDC patient-derived endometrial adenocarcinoma cell line growth inhibition [GQUAD]
Conditions: for IC50: curve of first compound; for viability, T/C: stronger effect = lower value
How it was run: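 Viability of tumor cells grown as complex spheroids with endothelial and stromal cells, exposed to drug combinations. Top concentration at or near clinical Cmax (else 10 microM), diluted in half-log increments.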

[1] = second compound 0.0316 µM, first compound 0.0316 µM
[2] = second compound 0.0316 µM, first compound 0.1 µM
[3] = second compound 0.0316 µM, first compound 0.316 µM
[4] = second compound 0.0316 µM, first compound 1 µM
[5] = second compound 0.0316 µM, first compound 3.16 µM
[6] = second compound 0.0316 µM, first compound 10 µM
[7] = second compound 0.1 µM, first compound 0.0316 µM
[8] = second compound 0.1 µM, first compound 0.1 µM
[9] = second compound 0.1 µM, first compound 0.316 µM
[10] = second compound 0.1 µM, first compound 1 µM
[11] = second compound 0.1 µM, first compound 3.16 µM
[12] = second compound 0.1 µM, first compound 10 µM
[13] = second compound 0.316 µM, first compound 0.0316 µM
[14] = second compound 0.316 µM, first compound 0.1 µM
[15] = second compound 0.316 µM, first compound 0.316 µM
[16] = second compound 0.316 µM, first compound 1 µM
[17] = second compound 0.316 µM, first compound 3.16 µM
[18] = second compound 0.316 µM, first compound 10 µM
[19] = second compound 1 µM, first compound 0.0316 µM
[20] = second compound 1 µM, first compound 0.1 µM
[21] = second compound 1 µM, first compound 0.316 µM
[22] = second compound 1 µM, first compound 1 µM
[23] = second compound 1 µM, first compound 3.16 µM
[24] = second compound 1 µM, first compound 10 µM
[25] = second compound 3.16 µM, first compound 0.0316 µM
[26] = second compound 3.16 µM, first compound 0.1 µM
[27] = second compound 3.16 µM, first compound 0.316 µM
[28] = second compound 3.16 µM, first compound 1 µM
[29] = second compound 3.16 µM, first compound 3.16 µM
[30] = second compound 3.16 µM, first compound 10 µM
[31] = second compound 10 µM, first compound 0.0316 µM
[32] = second compound 10 µM, first compound 0.1 µM
[33] = second compound 10 µM, first compound 0.316 µM
[34] = second compound 10 µM, first compound 1 µM
[35] = second compound 10 µM, first compound 3.16 µM
[36] = second compound 10 µM, first compound 10 µM
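Also: viability read after seven days of drug exposure.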
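For viability, T/C in this document: luminescence signal used as a proxy for viable cells; 100% = DMSO vehicle control wells.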

CC1COCCN1c1cc(-c2ccnn2C)c2ccnc(-c3ccn[nH]3)c2n1 (stereo unspecified) + CN(C)c1ccc(Nc2c3ccc(NC(=O)CCN4CCCC4)cc3nc3cc(NC(=O)CCN4CCCC4)ccc23)cc1
IC50 (second compound 0.0316 µM): 66.9 nM | IC50 (second compound 0.1 µM): 63.7 nM | IC50 (second compound 0.316 µM): 53.3 nM | IC50 (second compound 1 µM): 32 nM | IC50 (second compound 3.16 µM): < 31.6 nM | IC50 (second compound 10 µM): < 31.6 nM | viability, T/C [1]: 70% | viability, T/C [2]: 39% | viability, T/C [3]: 21.6% | viability, T/C [4]: 13.2% | viability, T/C [5]: 7.12% | viability, T/C [6]: 3.43% | viability, T/C [7]: 67.8% | viability, T/C [8]: 36.9% | viability, T/C [9]: 23.4% | viability, T/C [10]: 13.1% | viability, T/C [11]: 5.95% | viability, T/C [12]: 2.75% | viability, T/C [13]: 62.1% | viability, T/C [14]: 34.5% | viability, T/C [15]: 21.6% | viability, T/C [16]: 13.4% | viability, T/C [17]: 5% | viability, T/C [18]: 3.28% | viability, T/C [19]: 52% | viability, T/C [20]: 27.8% | viability, T/C [21]: 22.7% | viability, T/C [22]: 14% | viability, T/C [23]: 7.85% | viability, T/C [24]: 3.23% | viability, T/C [25]: 30.8% | viability, T/C [26]: 24.2% | viability, T/C [27]: 19.4% | viability, T/C [28]: 11.3% | viability, T/C [29]: 5.18% | viability, T/C [30]: 2.8% | viability, T/C [31]: 4.8% | viability, T/C [32]: 3.22% | viability, T/C [33]: 2.72% | viability, T/C [34]: 2.01% | viability, T/C [35]: 1.02% | viability, T/C [36]: 0.62%

COc1ncnc(C2CC2)c1-c1ncc2cnn(Cc3ccc(-c4nc(C(F)(F)F)cn4C(C)C)cc3)c2n1 + Cc1[nH]c2ccc(F)cc2c1-c1nc2c3cccnc3c3ncccc3c2[nH]1
IC50 (second compound 0.0316 µM): > 10000 nM | IC50 (second compound 0.1 µM): > 10000 nM | IC50 (second compound 0.316 µM): > 10000 nM | IC50 (second compound 1 µM): > 10000 nM | IC50 (second compound 3.16 µM): < 31.6 nM | IC50 (second compound 10 µM): < 31.6 nM | viability, T/C [1]: 86.6% | viability, T/C [2]: 67.6% | viability, T/C [3]: 77.3% | viability, T/C [4]: 57.8% | viability, T/C [5]: 66.7% | viability, T/C [6]: 75.3% | viability, T/C [7]: 74.8% | viability, T/C [8]: 57.1% | viability, T/C [9]: 87% | viability, T/C [10]: 54.6% | viability, T/C [11]: 79.9% | viability, T/C [12]: 67.6% | viability, T/C [13]: 63.8% | viability, T/C [14]: 60.6% | viability, T/C [15]: 62.8% | viability, T/C [16]: 64.5% | viability, T/C [17]: 77.3% | viability, T/C [18]: 66.6% | viability, T/C [19]: 57.8% | viability, T/C [20]: 59% | viability, T/C [21]: 60.1% | viability, T/C [22]: 50.2% | viability, T/C [23]: 50.1% | viability, T/C [24]: 57.4% | viability, T/C [25]: 20.8% | viability, T/C [26]: 27.6% | viability, T/C [27]: 22.6% | viability, T/C [28]: 28.4% | viability, T/C [29]: 27.5% | viability, T/C [30]: 26.1% | viability, T/C [31]: 28.9% | viability, T/C [32]: 29.5% | viability, T/C [33]: 26.4% | viability, T/C [34]: 27.1% | viability, T/C [35]: 32.1% | viability, T/C [36]: 32.6%

CCCS(=O)(=O)Nc1ccc(F)c(C(=O)c2c[nH]c3ncc(-c4ccc(Cl)cc4)cc23)c1F + CN(C)c1ccc(Nc2c3ccc(NC(=O)CCN4CCCC4)cc3nc3cc(NC(=O)CCN4CCCC4)ccc23)cc1
IC50 (second compound 0.0316 µM): 6700 nM | IC50 (second compound 0.1 µM): 6470 nM | IC50 (second compound 0.316 µM): 6630 nM | IC50 (second compound 1 µM): 6620 nM | IC50 (second compound 3.16 µM): < 31.6 nM | IC50 (second compound 10 µM): < 31.6 nM | viability, T/C [1]: 101% | viability, T/C [2]: 98.1% | viability, T/C [3]: 118% | viability, T/C [4]: 59.4% | viability, T/C [5]: 87.2% | viability, T/C [6]: 35.4% | viability, T/C [7]: 96.4% | viability, T/C [8]: 79.3% | viability, T/C [9]: 89.1% | viability, T/C [10]: 73.1% | viability, T/C [11]: 80.4% | viability, T/C [12]: 32.8% | viability, T/C [13]: 82.4% | viability, T/C [14]: 83% | viability, T/C [15]: 80.2% | viability, T/C [16]: 69.2% | viability, T/C [17]: 74.9% | viability, T/C [18]: 37.6% | viability, T/C [19]: 79.3% | viability, T/C [20]: 69.8% | viability, T/C [21]: 78.9% | viability, T/C [22]: 89.8% | viability, T/C [23]: 77.7% | viability, T/C [24]: 34.5% | viability, T/C [25]: 35.7% | viability, T/C [26]: 47.9% | viability, T/C [27]: 47.1% | viability, T/C [28]: 43% | viability, T/C [29]: 40.6% | viability, T/C [30]: 18.5% | viability, T/C [31]: 5.58% | viability, T/C [32]: 6.42% | viability, T/C [33]: 6.13% | viability, T/C [34]: 6.09% | viability, T/C [35]: 4.83% | viability, T/C [36]: 1.82%
